The text below walks through data of patent US20230147040A1, “METHOD FOR PROGNOSIS PREDICTION OF SKIN CANCER AND USE THEREOF” (PUBLIC UNIVERSITY CORPORATION NAGOYA CITY UNIVERSITY, priority 2020, published 2023).

Format in all cases: in vivo
The subject of one assay is Merkel cell carcinoma. In words: Clinical course of Merkel cell carcinoma cases under treatment.
The next assay relates to cutaneous angiosarcoma. In words: Clinical course of cutaneous angiosarcoma cases under treatment. The settings on record: primary lesion in the head.
In a further assay the test system is G6PD. In words: G6PD activity in patient serum (G6PD assay kit). To be noted: Case 4, avelumab and IMRT in combination. How it is done: For 50 patient serum specimens of 19 cases, the G6PD activity was measured using a G6PD assay kit (Abeam, ab102529). The average activity value of the 50 specimens was 11.45 mU/ml.
The course of Merkel cell carcinoma was confirmed for the cases (Case 1 to 3) of 3 specimens having a particularly high G6PD activity (19 mU/ml or more) among the 50 specimens. In addition, the course of Merkel cell carcinoma was confirmed for a case (Case 4) having a decreased G6PD activity. In FIGS. 6 to 8 shown below, the vertical axis represents the G6PD activity (mU/ml), and the horizontal axis represents the period.

Where [1] appears, read: Case B, wPTX, then changed to eribulin.

Consider `COc1cc([C@@H]2c3cc4c(cc3[C@@H](O[C@@H]3O[C@@H]5CO[C@@H](C)O[C@H]5[C@H](O)[C@H]3O)[C@H]3COC(=O)[C@H]23)OCO4)cc(OC)c1O` [VP-16], for which the therapeutic effect result in the assay with Merkel cell carcinoma (Case 1, stage IV, systemic lymph node metastasis after surgical resection and radiation therapy, combination therapy of CBDGB and VP-16) was “no therapeutic effect was observed”.

Consider `C=C1C[C@@H]2CC[C@@]34C[C@H]5O[C@H]6[C@@H](O3)[C@H]3O[C@H](CC[C@@H]3O[C@H]6[C@H]5O4)CC(=O)C[C@@H]3[C@@H](OC)[C@@H](C[C@H](O)CN)O[C@H]3C[C@H]3O[C@@H](CC[C@@H]1O2)C[C@@H](C)C3=C` [eribulin], for which the clinical course entry with cutaneous angiosarcoma (setting [1]) is on record as “pneumothorax (PD) was developed”. As to `CC(=O)O[C@@]12CO[C@@H]1C[C@H](O)[C@@]1(C)C(=O)[C@H](O)C3=C(C)[C@@H](OC(=O)[C@H](O)[C@@H](NC(=O)OC(C)(C)C)c4ccccc4)C[C@@](O)([C@@H](OC(=O)c4ccccc4)[C@H]21)C3(C)C` [wDTX], the clinical course result in the assay with cutaneous angiosarcoma (Case C, upon administration of wDTX) was “pneumothorax was developed”. On to `CC(=O)O[C@H]1C(=O)[C@@]2(C)[C@H]([C@H](OC(=O)c3ccccc3)[C@]3(O)C[C@H](OC(=O)[C@H](O)[C@@H](NC(=O)c4ccccc4)c4ccccc4)C(C)=C1C3(C)C)[C@]1(OC(C)=O)CO[C@@H]1C[C@@H]2O` [wPTX], for which the clinical course entry in the assay with cutaneous angiosarcoma (Case A, wPTX therapy and radiation therapy) is “the performance status (PS) deteriorated”; in the assay with cutaneous angiosarcoma (setting [1]) it was “parotid lymph node metastasis was observed”. Take avelumab: the G6PD activity entry in the assay with G6PD is recorded as “significantly reduced”. Besides, the clinical outcome in the assay on Merkel cell carcinoma (Case 1, stage IV, trial of avelumab after failed combination chemotherapy) is on record as “death of current disease was caused after several months”; in the assay on Merkel cell carcinoma (Case 4, stage III, avelumab in combination with IMRT), “complete remission (CR)”. For the same molecule, in the assay with Merkel cell carcinoma (Case 4, stage III, avelumab alone, after 3 months), the “PET/CT accumulation in right submandibular lymph node” value is given as “enhancement of the accumulation was observed”.
